Reference: patent US12606528B2, “Methods and materials for inhibiting NF-kB activity” (University of Pittsburgh - Of the Commonwealth System of …, priority 2019, dated 2026)
Like-named read-outs stand apart in the source and are kept apart here.

How the values were obtained:
[1] = tested on: NF-κB; assay: NF-κB assay: THP1-NF-κB-LUC cells, LPS-stimulated secreted luciferase; format: cell-based; conditions: THP1-NF-κB-LUC cells, read-out: IC50 (NF-κB assay)
Method in brief: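 THP1-NF-κB-LUC cells (25k/well) were pretreated with compounds for 2 h, then stimulated with LPS (10 ng/mL) for 18 h. Secreted luciferase was measured and normalized to vehicle, and IC50 was fitted from the concentration series.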

[2] = tested on: TNF release; assay: TNF assay: TNF release from LPS-stimulated human PBMCs (TNF ELISA); format: cell-based; conditions: PBMC, read-out: IC50 (TNF assay)
Method in brief: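 Human PBMCs at 10k/well pretreated with compound dilutions 2 h, then stimulated with LPS (10 ng/mL) for 18 h. TNF in supernatants quantified by ELISA; IC50 for inhibition of TNF release fitted from concentration–response.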

[3] = compounds 2 hours before LPS (10 ng/mL) for 18 hours, secreted luciferase
[4] = human PBMCs, compounds 2 hours before LPS (10 ng/ml) for 18 hours, supernatant TNF ELISA
[5] = LPS-stimulated human PBMCs, TNF ELISA

| SMILES | IC50 [1, 3] [nM] | IC50 [2, 4] [µM] | IC50 ([1]; LPS-stimulated) [nM] | IC50 [2, 5] [µM] |
| --- | --- | --- | --- | --- |
| Nc1cccc2cc(S(=O)(=O)c3ccccc3)cnc12 [BC19324] | > 10000 | 0.1 to 1 | – | – |
| CNc1cccc2cc(S(=O)(=O)c3ccccc3)cnc12 [BC19325] | > 10000 | 1 to 10 | – | – |
| CN(C)c1cccc2cc(S(=O)(=O)c3ccccc3)cnc12 [BC19326] | > 10000 | 1 to 10 | – | – |
| O=S(=O)(c1cccc(F)c1)c1nc(-c2ccccc2)oc1[S+]([O-])C1CCCCC1 (stereo not drawn) [BC19327] | – | – | 1000 to 10000 | 1 to 10 |
| O=S(=O)(c1cccc(F)c1)c1nc(-c2ccccc2)oc1S(=O)(=O)C1CCCCC1 [BC19328] | – | – | < 100 | 0.1 to 1 |
| CS(=O)(=O)c1oc(-c2ccccc2)nc1S(=O)(=O)c1ccc(Cl)cc1 [BC19329] | – | – | < 100 | < 0.1 |
| O=S(=O)(CC1CC1)c1oc(-c2ccccc2)nc1S(=O)(=O)c1ccc(Cl)cc1 [BC19330] | – | – | 100 to 1000 | 0.1 to 1 |
| COCCS(=O)(=O)c1oc(-c2ccccc2)nc1S(=O)(=O)c1ccc(Cl)cc1 [BC19331] | – | – | < 100 | < 0.1 |
| CCC[S+]([O-])c1oc(-c2ccc(F)cc2)nc1S(=O)(=O)c1ccc(Cl)cc1 (stereo not drawn) [BC19332] | – | – | 100 to 1000 | < 0.1 |
| COCCS(=O)(=O)c1oc(-c2ccc(F)cc2)nc1S(=O)(=O)c1ccc(Cl)cc1 [BC19333] | – | – | < 100 | < 0.1 |
| CC(C)S(=O)(=O)c1sc(-c2ccccc2)nc1S(=O)(=O)c1ccc(F)c(F)c1 [BC19334] | – | – | > 10000 | 1 to 10 |
| Cc1ccc(Cl)cc1NC(=O)CS(=O)(=O)c1[nH]c(-c2ccccc2)nc1S(=O)(=O)c1ccccc1 [BC19335] | – | – | > 10000 | > 10 |
| COc1cccc(-c2nc(S(=O)(=O)c3ccc(Cl)cc3)c(S(=O)(=O)C(C)C)[nH]2)c1 [BC19336] | – | – | > 10000 | > 10 |
| COCC[S+]([O-])c1[nH]c(-c2cccc(OC)c2)nc1S(=O)(=O)c1ccc(Cl)cc1 (stereo not drawn) [BC19337] | – | – | > 10000 | > 10 |
| C[S+]([O-])c1[nH]nc(N)c1S(=O)(=O)c1ccccc1 (stereo not drawn) [BC19338] | – | – | > 10000 | > 10 |
| CS(=O)(=O)c1[nH]nc(N)c1S(=O)(=O)c1ccccc1 [BC19339] | – | – | > 10000 | > 10 |
| Cc1nc2c(S(=O)(=O)c3ccccc3)c([S+](C)[O-])nn2c(C)c1C (stereo not drawn) [BC19340] | – | – | > 10000 | > 10 |
| Cc1cc(O)n2nc([S+](C)[O-])c(S(=O)(=O)c3ccccc3)c2n1 (stereo not drawn) [BC19341] | – | – | > 10000 | > 10 |
| C[S+]([O-])c1oc(-c2cccc(F)c2)nc1S(=O)(=O)c1ccc(Cl)cc1 (stereo not drawn) [BC19342] | – | – | < 100 | < 0.1 |

| SMILES | IC50 [1, 3] [nM] | IC50 [2, 4] [µM] | IC50 ([1]; LPS-stimulated) [nM] | IC50 [2, 5] [µM] |
| --- | --- | --- | --- | --- |
| CS(=O)(=O)c1oc(-c2cccc(F)c2)nc1S(=O)(=O)c1ccc(Cl)cc1 [BC19343] | – | – | 1000 to 10000 | < 0.1 |
| CCC[S+]([O-])c1oc(-c2cccc(F)c2)nc1S(=O)(=O)c1ccc(Cl)cc1 (stereo not drawn) [BC19344] | – | – | 100 to 1000 | 0.1 to 1 |
| CCCS(=O)(=O)c1oc(-c2cccc(F)c2)nc1S(=O)(=O)c1ccc(Cl)cc1 [BC19345] | – | – | 100 to 1000 | 0.1 to 1 |
| CC(C)[S+]([O-])c1oc(-c2cccc(F)c2)nc1S(=O)(=O)c1ccc(Cl)cc1 (stereo not drawn) [BC19346] | – | – | < 100 | < 0.1 |
| CC(C)C[S+]([O-])c1oc(-c2cccc(F)c2)nc1S(=O)(=O)c1ccc(Cl)cc1 (stereo not drawn) [BC19347] | – | – | < 100 | < 0.1 |
| CC(C)CS(=O)(=O)c1oc(-c2cccc(F)c2)nc1S(=O)(=O)c1ccc(Cl)cc1 [BC19348] | – | – | < 100 | 0.1 to 1 |
| O=S(=O)(c1ccc(Cl)cc1)c1nc(-c2cccc(F)c2)oc1[S+]([O-])CC1CC1 (stereo not drawn) [BC19349] | – | – | 100 to 1000 | < 0.1 |
| O=S(=O)(CC1CC1)c1oc(-c2cccc(F)c2)nc1S(=O)(=O)c1ccc(Cl)cc1 [BC19350] | – | – | 1000 to 10000 | 1 to 10 |
| COCC[S+]([O-])c1oc(-c2cccc(F)c2)nc1S(=O)(=O)c1ccc(Cl)cc1 (stereo not drawn) [BC19351] | – | – | 100 to 1000 | < 0.1 |
| COCCS(=O)(=O)c1oc(-c2cccc(F)c2)nc1S(=O)(=O)c1ccc(Cl)cc1 [BC19352] | – | – | 100 to 1000 | < 0.1 |
| O=S(=O)(c1ccc(Cl)cc1)c1nc(-c2cccc(F)c2)oc1[S+]([O-])C1CCCCC1 (stereo not drawn) [BC19353] | – | – | 100 to 1000 | 0.1 to 1 |
| CC1Oc2cc(S(=O)(=O)Nc3ccc(OC(F)(F)F)cc3)c(Cl)cc2NC1=O (stereo not drawn) [BC19354] | < 100 | > 10 | – | – |
| CCOc1ccc(NS(=O)(=O)c2cc(Cl)cc3c2OC(C)C(=O)N3)cc1 (stereo not drawn) [BC19355] | < 100 | > 10 | – | – |
| CC1Oc2cc(S(=O)(=O)NCc3ccc(F)cc3F)c(Br)cc2NC1=O (stereo not drawn) [BC19356] | 1000 to 10000 | > 10 | – | – |
| CC1Oc2cc(S(=O)(=O)NCc3ccc(OC(F)(F)F)cc3)c(Br)cc2NC1=O (stereo not drawn) [BC19357] | > 10000 | > 10 | – | – |
| CC1Oc2cc(S(=O)(=O)NCc3ccc(C(F)(F)F)cc3)c(Br)cc2NC1=O (stereo not drawn) [BC19358] | > 10000 | > 10 | – | – |
| CC1Oc2cc(S(=O)(=O)NCCc3ccc(OC(F)(F)F)cc3)c(Br)cc2NC1=O (stereo not drawn) [BC19359] | > 10000 | > 10 | – | – |
| CC1Oc2cc(S(=O)(=O)NC3CCC(O)CC3)c(Br)cc2NC1=O (stereo not drawn) [BC19360] | > 10000 | > 10 | – | – |
| CC1Oc2cc(S(=O)(=O)NC3CCC(C(C)(C)C)CC3)c(Br)cc2NC1=O (stereo not drawn) [BC19361] | > 10000 | > 10 | – | – |

| SMILES | IC50 [1, 3] [nM] | IC50 [2, 4] [µM] | IC50 ([1]; LPS-stimulated) [nM] | IC50 [2, 5] [µM] |
| --- | --- | --- | --- | --- |
| CC1Oc2c(cc(Br)cc2S(=O)(=O)NCc2ccc(F)cc2F)NC1=O (stereo not drawn) [BC19362] | 100 to 1000 | > 10 | – | – |
| CC1Oc2c(cc(Br)cc2S(=O)(=O)NCc2ccc(OC(F)(F)F)cc2)NC1=O (stereo not drawn) [BC19363] | < 100 | > 10 | – | – |
| CC1Oc2c(cc(Br)cc2S(=O)(=O)NCCc2ccc(OC(F)(F)F)cc2)NC1=O (stereo not drawn) [BC19364] | > 10000 | > 10 | – | – |
| CC1Oc2c(cc(Br)cc2S(=O)(=O)NCc2ccc(C(F)(F)F)cc2)NC1=O (stereo not drawn) [BC19365] | 1000 to 10000 | > 10 | – | – |
| CC1Oc2c(cc(Br)cc2S(=O)(=O)NC2CCC(O)CC2)NC1=O (stereo not drawn) [BC19366] | > 10000 | > 10 | – | – |
| CC1Oc2c(cc(Br)cc2S(=O)(=O)NC2CCC(C(C)(C)C)CC2)NC1=O (stereo not drawn) [BC19367] | > 10000 | > 10 | – | – |
| CCC1Oc2cc(S(=O)(=O)NCc3ccc(F)cc3F)c(Br)cc2NC1=O (stereo not drawn) [BC19368] | > 10000 | > 10 | – | – |
| CCC1Oc2cc(S(=O)(=O)NCc3ccc(OC(F)(F)F)cc3)c(Br)cc2NC1=O (stereo not drawn) [BC19369] | > 10000 | > 10 | – | – |
| CCC1Oc2cc(S(=O)(=O)NCc3ccc(C(F)(F)F)cc3)c(Br)cc2NC1=O (stereo not drawn) [BC19370] | > 10000 | > 10 | – | – |
| CCC1Oc2cc(S(=O)(=O)Nc3ccc(C(F)(F)F)cc3Cl)c(Br)cc2NC1=O (stereo not drawn) [BC19371] | 1000 to 10000 | > 10 | – | – |
| CCC1Oc2cc(S(=O)(=O)NC3CCC(O)CC3)c(Br)cc2NC1=O (stereo not drawn) [BC19372] | > 10000 | > 10 | – | – |
| CCC1Oc2cc(S(=O)(=O)NCCc3ccc(OC(F)(F)F)cc3)c(Br)cc2NC1=O (stereo not drawn) [BC19373] | > 10000 | > 10 | – | – |
| CCC1Oc2c(cc(Br)cc2S(=O)(=O)NCc2ccc(F)cc2F)NC1=O (stereo not drawn) [BC19374] | < 100 | 1 to 10 | – | – |
| CCC1Oc2c(cc(Br)cc2S(=O)(=O)NCc2ccc(OC(F)(F)F)cc2)NC1=O (stereo not drawn) [BC19375] | < 100 | > 10 | – | – |
| CCC1Oc2c(cc(Br)cc2S(=O)(=O)NCCc2ccc(OC(F)(F)F)cc2)NC1=O (stereo not drawn) [BC19376] | 1000 to 10000 | > 10 | – | – |
| CCC1Oc2c(cc(Br)cc2S(=O)(=O)NCc2ccc(C(F)(F)F)cc2)NC1=O (stereo not drawn) [BC19377] | < 100 | > 10 | – | – |
| CCC1Oc2c(cc(Br)cc2S(=O)(=O)NC2CCC(O)CC2)NC1=O (stereo not drawn) [BC19378] | > 10000 | > 10 | – | – |
| CCC1Oc2c(cc(Br)cc2S(=O)(=O)NC2CCC(C(C)(C)C)CC2)NC1=O (stereo not drawn) [BC19379] | > 10000 | > 10 | – | – |
| CC(C)(C)C1CCC(NS(=O)(=O)c2cc(Br)cc3c2OCC(=O)N3)CC1 (stereo not drawn) [BC19380] | > 10000 | > 10 | – | – |
